Measured values as given in patent US20100311694A1, “Set of Geldanamycin Derivatives and Their Preparation Methods” (Institute of Medicinal Biotechnology, Chinese Academy of …, priority 2008, published 2010).

Tests used:
[1] = system: HIV-1; experiment: Anti HIV-1 activity (HIV-1 P24 antigen in cell cultures); type: cell-based; conditions: 4 days after addition of the reagents
Protocol: Test Procedure of Anti HIV-1 Activity
8 reagent solutions of different diluted concentrations and positive control solutions are added into cell cultures in 96 well plate respectively. The sample of each diluted solutions is made duplicately and a control cell sample is also is set up. 100 μl of cell sample at a concentration of 2×10^5cells/ml is inoculated into the wells containing reagent in the plate. The cells samples are cultured in a saturated humidity culture chamber (at a 5% CO2 atmosphere) at 37° C. The pathological changes of cells are observed daily.

[2] = system: HBV; experiment: Anti-HBV activity (HBV DNA in cell lysate, spot hybridization); type: cell-based; conditions: HBV DNA content of the cells, reagent solution changed every 4 days
Protocol: Test Procedure for Anti-HBV Activity
Using cell culture method, the preparation of the cells to be tested (100,000 cell's/mL) is inoculated into cell culture plate in 100 μl each well and the cells are cultured 24 h at 37° C. in 5% CO2. Tests are carried out when the cells grow into a monolayer. The target compounds as well as the controls are prepared into a series of solutions of appropriate concentrations using the culture medium and are added into 96 well culture plate respectively in 4 wells per one concentration. Then the reagent solution in each well is changed into the fresh reagent solution with the same concentration every 4 days. A cell control without reagent treatment is simultaneously is set up. The observation index is based upon the pathological changes of the cells by observing the degrees of the pathological changes of the cells under microscope every 8 days. […] Cell control without drug treatment is simultaneously is set up. The reagent solution or control medium in each well is changed into the fresh reagent solution or fresh medium respectively every 4 days. After cytolysis of the cells, HBV DNA is extracted from the cell lysis solution according to the molecular cloning technical procedure. The spots of different samples are hybridized and the A values of different hybridized spots are measured using autoradiograghic technique. The HBV DNA contents in the cell control as well as in the drug treated samples are calculated using the regression equations obtained from the standard curves to obtain half effective concentration values, the results are shown in Table 1.

Compound	Activity of HIV inhibition IC50 [1] [µg/mL]	Activity of HBV inhibition IC50 [2] [µg/mL]
COC1C=CC=C(C)C(=O)NC2=CC(=O)C(NN3CCCCC3)=C(CC(C)CC(OC)C(O)C(C)C=C(C)C1OC(N)=O)C2=O (stereo not shown) [GM-W11]	3.87	8.0
CCC(CO)(CO)NC1=C2CC(C)CC(OC)C(O)C(C)C=C(C)C(OC(N)=O)C(OC)C=CC=C(C)C(=O)NC(=CC1=O)C2=O (stereo not shown) [GM-W63]	1.37	3.2
COC1C=CC=C(C)C(=O)NC2=CC(=O)C(NCC3(O)CCCCC3)=C(CC(C)CC(OC)C(O)C(C)C=C(C)C1OC(N)=O)C2=O (stereo not shown) [GM-W65]	6.81	3.1
COC1C=CC=C(C)C(=O)NC2=CC(=O)C(Nn3cnnc3)=C(CC(C)CC(OC)C(O)C(C)C=C(C)C1OC(N)=O)C2=O (stereo not shown) [GM-W77]	8.97	7.36
COC1C=CC=C(C)C(=O)NC2=CC(=O)C(NCC(O)c3ccccc3)=C(CC(C)CC(OC)C(O)C(C)C=C(C)C1OC(N)=O)C2=O (stereo not shown) [GM-W36]	0.29	0.02
COC1C=CC=C(C)C(=O)NC2=CC(=O)C(NCCN3CCCC3)=C(CC(C)CC(OC)C(O)C(C)C=C(C)C1OC(N)=O)C2=O (stereo not shown) [GM-W52]	0.65	0.32
COC1C=CC=C(C)C(=O)NC2=CC(=O)C(NC3CCN(Cc4ccccc4)CC3)=C(CC(C)CC(OC)C(O)C(C)C=C(C)C1OC(N)=O)C2=O (stereo not shown) [GM-ABPD, 17-(4′-benzyl-4′-azacyclohexylamino)-17-demethoxy geldanamycin]	<0.03	0.32
COC1C=CC=C(C)C(=O)NC2=CC(=O)C(NCCc3cccnc3)=C(CC(C)CC(OC)C(O)C(C)C=C(C)C1OC(N)=O)C2=O (stereo not shown) [GM-W32]	0.48	6.4
COC1C=CC=C(C)C(=O)NC2=CC(=O)C(NCCOS(=O)(=O)O)=C(CC(C)CC(OC)C(O)C(C)C=C(C)C1OC(N)=O)C2=O (stereo not shown) [GM-W17]	23.47	10.3
COC1C=CC=C(C)C(=O)NC2=CC(=O)C(NCc3ccccn3)=C(CC(C)CC(OC)C(O)C(C)C=C(C)C1OC(N)=O)C2=O (stereo not shown) [GM-W19]	28.90	3.4
17-diethyloxy phosphoryl methylene amino-17-demethoxy geldanamycin [GM-GP]	1.36	3.24
COC1C=CC=C(C)C(=O)NC2=CC(=O)C(NCCc3c[nH]c4ccccc34)=C(CC(C)CC(OC)C(O)C(C)C=C(C)C1OC(N)=O)C2=O (stereo not shown) [GM-W90]	1.23	0.93
COC1C=CC=C(C)C(=O)NC2=CC(=O)C(NCC3CCC4CC3C4(C)C)=C(CC(C)CC(OC)C(O)C(C)C=C(C)C1OC(N)=O)C2=O (stereo not shown) [GM-MTA, 17-(myrtanylamino)-17-demethoxy geldanamycin]	0.04	0.32
COC1C=CC=C(C)C(=O)NC2=CC(=O)C(NC(C)Cc3c[nH]c4ccccc34)=C(CC(C)CC(OC)C(O)C(C)C=C(C)C1OC(N)=O)C2=O (stereo not shown) [GM-W89]	1.68	2.36
CCN1CCCC1CNC1=C2CC(C)CC(OC)C(O)C(C)C=C(C)C(OC(N)=O)C(OC)C=CC=C(C)C(=O)NC(=CC1=O)C2=O (stereo not shown) [GM-210R, 17-(2″R-2″-(N-ethylpyrrolidinyl)-methylamino)-17-demethoxy geldanamycin]	0.01	0.064
COC1C=CC=C(C)C(=O)NC2=CC(=O)C(NCC(O)c3ccccc3)=C(CC(C)CC(OC)C(O)C(C)C=C(C)C1OC(N)=O)C2=O (stereo not shown) [GM-W9]	2.46	3.2

Compound	Activity of HIV inhibition IC50 [1] [µg/mL]	Activity of HBV inhibition IC50 [2] [µg/mL]
C=CC(C)(CCC=C(C)CCC=C(C)CCC=C(C)C)OC(=O)CCCNC1=C2CC(C)CC(OC)C(O)C(C)C=C(C)C(OC(N)=O)C(OC)C=CC=C(C)C(=O)NC(=CC1=O)C2=O (stereo not shown) [GM-W84]	1.24	0.8
17-(4′-((5″-(4′″-amino-2′″-oxopyrimidine-1′″-(2H)-yl)-3″,4″-dihydroxyl-tetrahydrofuran-2″yl)methoxyl)-4′-oxobutylamino)-17-de methoxy geldanamycin [GM-CY]	0.02	0.032
COC1C=CC=C(C)C(=O)NC2=C(NCC3CCCO3)C(=O)C(NCC3CCCO3)=C(CC(C)CC(OC)C(O)C(C)C=C(C)C1OC(N)=O)C2=O [THFM + 2, 17,19-di-(S)-tetrahydrofurfuryl amino-17-demethoxy geldanamycin]	0.18	0.10
COC1C=CC=C(C)C(=O)NC2=CC(=O)C(NCCC3CC(CC(=O)OC(C)(C)C)OC(C)(C)O3)=C(CC(C)CC(OC)C(O)C(C)C=C(C)C1OC(N)=O)C2=O (stereo not shown) [GM-W79]	1.47	3.2
COC1C=CC=C(C)C(=O)NC2=CC(=O)C(NN3CCN(C)CC3)=C(CC(C)CC(OC)C(O)C(C)C=C(C)C1OC(N)=O)C2=O (stereo not shown) [GM-W35]	3.48	4.36
COC1C=CC=C(C)C(=O)NC2=CC(=O)C(NCc3cc(O)co3)=C(CC(C)CC(OC)C(O)C(C)C=C(C)C1OC(N)=O)C2=O (stereo not shown) [GM-W53]	0.37	0.46
COC1C=CC=C(C)C(=O)NC2=C(NCC3CCCO3)C(=O)C(NCC3CCCO3)=C(CC(C)CC(OC)C(O)C(C)C=C(C)C1OC(N)=O)C2=O (stereo not shown) [THFM-GM2]	0.24	0.064
CCOC(=O)N1CCC(NC2=C3CC(C)CC(OC)C(O)C(C)C=C(C)C(OC(N)=O)C(OC)C=CC=C(C)C(=O)NC(=CC2=O)C3=O)CC1 (stereo not shown) [GM-W80]	0.97	1.1
COC1C=CC=C(C)C(=O)NC2=CC(=O)C(NCC3CCCCN3)=C(CC(C)CC(OC)C(O)C(C)C=C(C)C1OC(N)=O)C2=O (stereo not shown) [GM-W22]	1.37	3.2
COC1C=CC=C(C)C(=O)NC2=CC(=O)C(NCCc3ccc(N)cc3)=C(CC(C)CC(OC)C(O)C(C)C=C(C)C1OC(N)=O)C2=O (stereo not shown) [GM-W10]	40.71	6.4
COC1C=CC=C(C)C(=O)NC2=CC(=O)C(NCC(C)(C)CO)=C(CC(C)CC(OC)C(O)C(C)C=C(C)C1OC(N)=O)C2=O (stereo not shown) [GM-W16]	0.43	0.064
COC1C=CC=C(C)C(=O)NC2=CC(=O)C(NC3CC(C)(C)N(C)C(C)(C)C3)=C(CC(C)CC(OC)C(O)C(C)C=C(C)C1OC(N)=O)C2=O (stereo not shown) [GM-W69]	22.23	10.8
CCCCCC(NC1=C2CC(C)CC(OC)C(O)C(C)C=C(C)C(OC(N)=O)C(OC)C=CC=C(C)C(=O)NC(=CC1=O)C2=O)P(=O)(O)O (stereo not shown) [GM-W62]	1.76	0.89
COC1C=CC=C(C)C(=O)NC2=CC(=O)C(NCc3ccc(C)o3)=C(CC(C)CC(OC)C(O)C(C)C=C(C)C1OC(N)=O)C2=O (stereo not shown) [GM-W88]	0.24	0.08
COC1C=CC=C(C)C(=O)NC2=CC(=O)C(NCc3cccnc3)=C(CC(C)CC(OC)C(O)C(C)C=C(C)C1OC(N)=O)C2=O (stereo not shown) [GM-W20]	26.42	6.89
COC1C=CC=C(C)C(=O)NC2=CC(=O)C(NCCc3ccccn3)=C(CC(C)CC(OC)C(O)C(C)C=C(C)C1OC(N)=O)C2=O (stereo not shown) [GM-W18]	33.41	50.4
